Reference: US20260000642A1 (Tay Therapeutics Limited, priority 2022, published 2026)
Where “and” joins values, the source holds several entries; their conditions need not be identical. Identical values can stand only once.

System: rat anti-collagen IgG1 antibodies
Assay: CIA model: rat anti-collagen IgG1 antibodies in serum at day 21
Type: in vivo, Lewis rat
Conditions: for levels of rat anti-collagen IgG1 antibodies relative to CIA without treatment: day 21
Description: Blood was additionally collected from groups 1-7 via cardiac puncture following euthanasia on Day 21. Blood from cardiac puncture was placed in a 1.5 mL centrifuge tube without an anticoagulant and centrifuged at 8000 rcf for 15 minutes. Serum was divided into two separate tubes and stored at −75±15° C. One tube was used to analyze IgG1, and the other tube was reserved for additional analyses.
All data measured and recorded was analyzed using SPSS 16.0 software. Groups were compared using one-way ANOVA and significance was set at p<0.05.

Compound	levels of rat anti-collagen IgG1 antibodies relative to CIA without treatment (1 mg/kg, p<0.05)	levels of rat anti-collagen IgG1 antibodies relative to CIA without treatment (10 mg/kg, p<0.05)	levels of rat anti-collagen IgG1 antibodies relative to CIA without treatment (30 mg/kg, p<0.01)	Rat Anti-Collagen IgG1 Antibody Con. (day 21 serum, reference group (Dexamethasone or GSK620), before fold 2000 correction, individual animals)	Final Rat Anti-Collagen IgG1 Antibody Con. (day 21 serum, reference group (Dexamethasone or GSK620), individual animals)
CNC(=O)c1[nH]c(C(=O)NC2CCC2)cc1O[C@@H](C)c1ccccc1 [Example 101, N^5-cyclobutyl-N^2-methyl-3-(1-phenylethoxy)-1H-pyrrole-2,5-dicarboxamide]	significantly decreased	significantly decreased	significantly decreased		
C[C@@H]1C[C@H]2[C@@H]3CCC4=CC(=O)C=C[C@]4(C)[C@@]3(F)[C@@H](O)C[C@]2(C)[C@@]1(O)C(=O)CO [dexamethasone]				11.01 units/ml and 2.63 units/ml and 0.65 units/ml and 1.27 units/ml and 5.87 units/ml and 2.28 units/ml and 3.96 units/ml and 3.67 units/ml	22019.88 units/ml and 5250.27 units/ml and 1296.14 units/ml and 2541.14 units/ml and 4553.59 units/ml and 7925.50 units/ml and 7346.16 units/ml
